Source: patent publication US8288549B2, “Glycine B antagonist” (Merz Pharma GmbH & Co. KGaA, priority 2008, dated 2012)

Assays:
[1] = target: T1, glycine binding pocket of the NMDA receptor (Rattus norvegicus, UniProt P35439); experiment: [3H]-MDL-105,519 displacement studies on rat cortical membranes; conditions: displacement of 2 nM [3H]-MDL-105,519, rat cortical membranes, 4° C., 1 h; read-out: NMDA-MDL 105519-r-CTX - IC50
T1 construct: The cortex is dissected out and processed as described by Parsons, et al; from tissue; host or cells: rat cerebral cortex membranes (male Sprague-Dawley)
Method: [^3]MDL-105,519 Displacement Studies
For the evaluation of the binding affinity of the test compounds on the glycine binding pocket of the NMDA receptor, [^3H]-MDL-105,519 (GE Healthcare, Freiburg, Germany) displacement studies are performed using a 96-well plate robotic platform. MDL-105,519 (Baron et al., J Pharmacol Exp Ther 1996, 279(1), 62-68; Baron et al., European Journal of Pharmacology, 1997, 323(2-3), 181-192; Hoffner & Wanner, Neuroscience Letters, 1997, 226(2), 79-82) is a selective, high affinity antagonist at the NMDA receptor glycine site.
Tissue preparation is performed according to Foster & Wong (Br J Pharmacol, 1987, 91, 403-409) with some modifications. Anaesthetised male Sprague-Dawley rats (200-250 g, Janvier, Le Genest-Isle, France) are decapitated and their brains removed rapidly. The cortex is dissected out and processed as described by Parsons, et al. (J Pharmacol Exp Ther, 1997, 283(3), 1264-1275). For isolation of the cell membranes, the cortices are homogenized in 20 volumes of ice-cold 0.32 M sucrose (Sigma-Aldrich, Taufkirchen, Germany) using a glass-Teflon homogenizer. The homogenate is centrifuged at 1000×g for 10 minutes, the pellet is discarded and the supernatant centrifuged at 20,000×g for 20 minutes. The resulting pellet is re-suspended in 20 volumes of distilled water and centrifuged for 20 minutes at 8000×g. The supernatant and the buffy coat are then centrifuged three times (48,000×g for 20 minutes) in the presence of 50 mM Tris-HCl, pH 8.0 (assay buffer). All centrifugation steps are carried out at 4° C. After resuspension in 5 volumes of 50 mM Tris-HCl, pH 7.5, the membrane suspension is frozen rapidly at −80° C. On the day of assay, the membranes are thawed and washed four times by resuspension in 50 mM Tris-HCl, pH 7.5, and centrifugation at 48,000×g for 20 minutes. The final pellet is suspended in assay buffer. The amount of protein in the final membrane preparation is determined according to the method of Lowry, et al. (J. Biological Chemistry, 1951, 193, 256-275) with some modifications (Hartree, Analytical Biochemistry, 1972, 48, 422-427). The final protein concentration used for our studies is 400 μg/ml.
A robotic system designed for binding assays (Tecan Deutschland GmbH, Crailsheim, Germany) is loaded with the membrane solution, solutions for bound control (buffer/DMSO 20%), unlabeled glycine (1 mM) for evaluation of non-specific binding, all compounds to be tested (at 20-fold concentrations), radioligand and respective 96-well plates.
Before performing displacement studies, saturation experiments are performed to determine the equilibrium dissociation constant (Kd) of [^3H]-MDL-105,519, which is a parameter for the affinity of the radioligand to the binding site. The protein/receptor concentration is held constant whereas the amount of specific bound radioligand is determined using increasing concentrations of ligand.
On the basis of the saturation experiments, a final [^3H]-MDL-105,519 concentration of 2 nM is selected. Firstly, the assay plates are loaded with membrane solution and are shaken at 4° C. The mother plates are then prepared by pipetting the compounds (n=4) into assay buffer/20% DMSO to obtain the desired final concentrations. After transferring radioligand into the assay plates, the compounds are added (including the bound and the non-specific binding control). The final DMSO concentration is 1%. The assay plates are incubated and shaken at 4° C. for 1 h, before the mixture is exhausted as rapidly as possible via a vacuum manifold using the Multiscreen HTS glass fibre (type B) filter plates (Millipore, Schwalbach, Germany) under a constant vacuum of 450 mbar. The membranes are washed four times with cold assay buffer (100 μL). […]

[2] = target: T2, NMDA receptor glycine B site (Rattus norvegicus, UniProt P35439); experiment: Whole cell patch-clamp recordings in cultured rat hippocampal neurons (NMDA/D-Serine evoked currents); type: cell-based; conditions: NMDA (200 μM) and D-Serine (1 μM), holding potential −70 mV, read-out: NMDA-PC-r-HIC-NAM - IC50
T2 construct: Hippocampi are then isolated from the brains of at least 8 embryos after decapitation; endogenous in cells; host or cells: primary cultured hippocampal neurons from E20 Sprague-Dawley rat embryos, 11-15 DIV
Method: Antagonistic potencies of the test compounds are functionally evaluated using electrophysiological whole cell patch-clamp recordings and/or fluorometric intracellular Ca^2+-imaging (FLIPR) screens.
Cell preparation is performed as described by Parsons, et al. (Neuropharmacology, 1998, 37(6), 719-727). The female Sprague-Dawley rat is anaesthetised by placing in a saturated CO2-euthanasia chamber under further quiet CO2-influx. Under these conditions the rat loses consciousness after a few seconds and is then sacrificed by cervical dislocation. After opening the abdominal cavity, embryos (E20) are removed and stored in ice cold Ca^2+- and Mg^2+-free Hank's Buffered Salt Solution (pH 7.3), containing 4 g/l glucose (HBSS-CMF). Hippocampi are then isolated from the brains of at least 8 embryos after decapitation, transferred into ice cold HBSS-CMF and washed 3 to 4 times.
Hippocampi are pre-incubated for 8 min with a 0.66% trypsin (Sigma-Aldrich) and 0.1% (20 U/ml) DNAase solution (Sigma-Aldrich) in Ca^2+-free Phosphate Buffered Saline (PBS-CF) and washed 3 times with HBSS-CMF. Cells are then mechanically dissociated by trituration in a PBS-CF solution containing 0.05% (10 U/ml) DNAase and 0.3% of the trypsin inhibitor ovomucoid (all from Sigma-Aldrich). The cells are then centrifuged at 180×g for 10 minutes, and the cell pellet re-suspended in basal Minimum essential medium (MEM, Invitrogen, Karlsruhe, Germany), again carefully triturated to ensure maximal dissociation and finally plated in the flexiPERM inserts (Thermo Fisher Scientific, Langenselbold, Germany) at a density of 15×10^3 cells/cm^2 (0.5 ml/insert) onto poly-DL-ornithine (Sigma) and mouse laminin (Invitrogen) pre-coated plastic petri dishes. After 1 hour the cells become attached to the bottom of the dish and the inserts may be removed. The cells are then nourished with 2 ml MEM supplemented with 5% foetal calf serum (FCS) and 5% horse serum and incubated at 37° C. with 95% air and 5% CO2 at 95% humidity. After 4 days in vitro (DIV) further glial mitosis is inhibited by adding 10 μl of AraC (5 μM endconcentration). The medium is completely exchanged after an additional 2 DIV and again, but only partly (50%), after 8 DIV. The cells are used for electrophysiological recordings after 11-15 DIV.
Cells are visualised using an inverted microscope and selected for patching based upon their position and morphology. Voltage clamp recordings are made in the whole cell configuration of the patch clamp technique at a holding potential of −70 mV with the aid of an EPC-10 amplifier in combination with pipette manipulator. Patch clamp pipettes are pulled from borosilicate glass using a horizontal puller (P-97 Puller, Sutter Instruments, USA) and, when filled with intracellular solution, have resistances of 1-4 MΩ.
Solutions are delivered via a home-made gravity driven very fast perfusion system (<10 ms) including valves to switch flow on and off in combination with a stepper motor-driven double-barreled theta glass application pipette in order to expose cells to either agonist-free or agonist-containing solutions in presence or absence of antagonist.
The intracellular solution used consists of: 120 mM CsCl, 10 mM EGTA, 1 mM MgCl2, 200 μM CaCl2, 10 mM glucose and 22 mM tetraethyl ammonium chloride (TEA-CL). The corresponding extracellular bath solution contains: 140 mM NaCl, 3 mM KCl, 10 mM glucose, 10 mM HEPES, 1.5 mM CaCl2 and 4.5 mM sucrose (all from Sigma-Aldrich) pH 7.3, and is supplemented with 0.3 μM tetrodotoxin (TTX, Tocris, Bristol, U.K.) to block voltage-activated sodium channels and 0.25 μM bicuculline (Sigma-Aldrich) to block GABAA receptors. […]

O=C(O)c1cc2cc(Cl)ccc2nc1N[C@@H](Cc1ccccc1)C(=O)O [Example 1, 2-((S)-1-Carboxy-2-phenyl-ethylamino)-6-chloro-quinoline-3-carboxylic acid]
IC50 [1]: 0.41 µM | melting point: 153 to 159 °C

O=C(O)c1cc2cc(Cl)ccc2nc1NC(Cc1c[nH]c2ccc(F)cc12)C(=O)O (centres unmarked) [Example 25, 2-[1-Carboxy-2-(5-fluoro-1H-indol-3-yl)-ethylamino]-6-chloro-quinoline-3-carboxylic acid]
IC50 [2]: 0.93 µM | IC50 [1]: 2.12 µM

O=C(O)c1cc2cc(Cl)ccc2nc1N[C@@H](Cc1ccc(O)c([N+](=O)[O-])c1)C(=O)O [Example 41, 2-[(S)-1-Carboxy-2-(4-hydroxy-3-nitro-phenyl)-ethylamino]-6-chloro-quinoline-3-carboxylic acid]
IC50 [2]: 1.03 µM | IC50 [1]: 1.87 µM

O=C(O)c1cc2cc(Cl)ccc2nc1N[C@@H](Cc1ccncc1)C(=O)O [Example 55, 2-((S)-1-Carboxy-2-pyridin-4-yl-ethylamino)-6-chloro-quinoline-3-carboxylic acid]
IC50 [1]: 4.39 µM | melting point: 155 to 158 °C (dec.)

O=C(O)c1cc2cc(Br)cc(Br)c2nc1NC(Cc1ccccc1)C(=O)O (centres unmarked) [Example 56, 6,8-Dibromo-2-(1-carboxy-2-phenyl-ethylamino)-quinoline-3-carboxylic acid]
IC50 [2]: 1.24 µM | IC50 [1]: 1.73 µM | melting point: 115 to 117 °C

Cc1cc(Cl)cc2cc(C(=O)O)c(NC(Cc3ccccc3)C(=O)O)nc12 (centres unmarked) [Example 95, 2-(1-Carboxy-2-phenyl-ethylamino)-6-chloro-8-methylquinoline-3-carboxylic acid]
IC50 [1]: 2.29 µM | melting point: > 145 °C (dec.)

Cc1cc(Cl)cc2cc(C(=O)O)c(NC(Cc3c[nH]c4ccccc34)C(=O)O)nc12 (centres unmarked) [Example 97, 2-[1-Carboxy-2-(1H-indol-3-yl)-ethylamino]-6-chloro-8-methylquinoline-3-carboxylic acid]
IC50 [1]: 2.49 µM | melting point: > 160 °C (dec.)

O=C(O)c1cc2cc(Cl)ccc2nc1NC(Cc1ccc(Nc2ccnc3ccccc23)cc1)C(=O)O (centres unmarked) [Example 104, 2-{1-Carboxy-2-[4-(quinolin-4-ylamino)-phenyl]-ethylamino}-6-chloro-quinoline-3-carboxylic acid]
IC50 [1]: 0.7 µM | melting point: > 200 °C (dec.)

O=C(O)c1cc2cc(Cl)cc(Cl)c2nc1N[C@@H](Cc1c[nH]c2ccccc12)C(=O)O [Example 155, 2-[(S)-1-Carboxy-2-(1H-indol-3-yl)-ethylamino]-6,8-dichloro-quinoline-3-carboxylic acid]
IC50 [1]: 1.03 µM

O=C(O)c1cc2cc(Cl)ccc2nc1N[C@@H](Cc1cccs1)C(=O)O [Example 156, 2-((S)-1-Carboxy-2-thiophen-2-yl-ethylamino)-6-chloro-quinoline-3-carboxylic acid]
IC50 [1]: 1.91 µM | melting point: > 250 °C (dec.)
